Data: the NIST ThermoML archive (doi:10.1007/s10765-008-0482-1)
Where “and” joins values, the source holds several entries; their conditions need not be identical. Equal entries are not always repeated.

Assay: xn = mol fraction of the nth substance listed
Settings: Fluid (supercritical or subcritical phases), Parallel plate method

CC [ethane] + O=C=O
Settings | thermal conductivity
296.64 K, Amount density=7450 mol/m3, x2 = 0.25 | 0.186 W/m/K
296.65 K, Amount density=7450 mol/m3, x2 = 0.25 | 0.183 W/m/K
296.66 K, Amount density=6830 mol/m3, x2 = 0.25 | 0.138 W/m/K
296.69 K, Amount density=7450 mol/m3, x2 = 0.25 | 0.186 W/m/K
296.7 K, Amount density=6870 mol/m3, x2 = 0.25 | 0.177 W/m/K and 0.188 W/m/K
296.7 K, Amount density=7450 mol/m3, x2 = 0.25 | 0.154 W/m/K
296.71 K, Amount density=6870 mol/m3, x2 = 0.25 | 0.214 W/m/K
296.71 K, Amount density=7450 mol/m3, x2 = 0.25 | 0.175 W/m/K
296.72 K, Amount density=7450 mol/m3, x2 = 0.25 | 0.164 W/m/K and 0.166 W/m/K
296.73 K, Amount density=6870 mol/m3, x2 = 0.25 | 0.195 W/m/K
296.74 K, Amount density=6830 mol/m3, x2 = 0.25 | 0.199 W/m/K
296.74 K, Amount density=7450 mol/m3, x2 = 0.25 | 0.145 W/m/K
296.75 K, Amount density=6870 mol/m3, x2 = 0.25 | 0.204 W/m/K
296.75 K, Amount density=7450 mol/m3, x2 = 0.25 | 0.157 W/m/K
296.76 K, Amount density=6870 mol/m3, x2 = 0.25 | 0.189 W/m/K
296.77 K, Amount density=6870 mol/m3, x2 = 0.25 | 0.195 W/m/K
296.79 K, Amount density=6830 mol/m3, x2 = 0.25 | 0.218 W/m/K
296.8 K, Amount density=6870 mol/m3, x2 = 0.25 | 0.168 W/m/K
296.8 K, Amount density=8450 mol/m3, x2 = 0.25 | 0.0921 W/m/K
296.82 K, Amount density=6710 mol/m3, x2 = 0.26 | 0.118 W/m/K
296.83 K, Amount density=6870 mol/m3, x2 = 0.25 | 0.157 W/m/K
296.84 K, Amount density=6710 mol/m3, x2 = 0.26 | 0.111 W/m/K
296.84 K, Amount density=6830 mol/m3, x2 = 0.25 | 0.142 W/m/K
296.85 K, Amount density=5680 mol/m3, x2 = 0.25 | 0.0729 W/m/K
296.86 K, Amount density=2940 mol/m3, x2 = 0.25 | 0.0306 W/m/K
296.87 K, Amount density=877 mol/m3, x2 = 0.26 | 0.0217 W/m/K
296.87 K, Amount density=6710 mol/m3, x2 = 0.26 | 0.11 W/m/K
296.88 K, Amount density=446 mol/m3, x2 = 0.25 | 0.021 W/m/K
296.88 K, Amount density=7450 mol/m3, x2 = 0.25 | 0.145 W/m/K
296.88 K, Amount density=7490 mol/m3, x2 = 0.25 | 0.139 W/m/K
297.16 K, Amount density=3090 mol/m3, x2 = 0.26 | 0.0313 W/m/K
297.44 K, Amount density=8450 mol/m3, x2 = 0.25 | 0.0821 W/m/K
297.46 K, Amount density=5680 mol/m3, x2 = 0.25 | 0.0677 W/m/K
297.46 K, Amount density=6830 mol/m3, x2 = 0.25 | 0.11 W/m/K and 0.102 W/m/K
297.47 K, Amount density=2940 mol/m3, x2 = 0.25 | 0.0305 W/m/K
297.47 K, Amount density=6830 mol/m3, x2 = 0.25 | 0.102 W/m/K
297.48 K, Amount density=7490 mol/m3, x2 = 0.25 | 0.111 W/m/K
297.5 K, Amount density=10780 mol/m3, x2 = 0.25 | 0.0671 W/m/K
297.52 K, Amount density=446 mol/m3, x2 = 0.25 | 0.021 W/m/K
298.49 K, Amount density=9120 mol/m3, x2 = 0.74 | 0.06 W/m/K
298.69 K, Amount density=6870 mol/m3, x2 = 0.25 | 0.169 W/m/K
298.95 K, Amount density=7450 mol/m3, x2 = 0.25 | 0.081 W/m/K
298.99 K, Amount density=5680 mol/m3, x2 = 0.25 | 0.0623 W/m/K
298.99 K, Amount density=6830 mol/m3, x2 = 0.25 | 0.0779 W/m/K
298.99 K, Amount density=7490 mol/m3, x2 = 0.25 | 0.0811 W/m/K
298.99 K, Amount density=10780 mol/m3, x2 = 0.25 | 0.0684 W/m/K
299 K, Amount density=2940 mol/m3, x2 = 0.25 | 0.0305 W/m/K
299.01 K, Amount density=446 mol/m3, x2 = 0.25 | 0.0211 W/m/K
299.01 K, Amount density=6630 mol/m3, x2 = 0.74 | 0.0467 W/m/K
299.02 K, Amount density=446 mol/m3, x2 = 0.25 | 0.0212 W/m/K
301.91 K, Amount density=7730 mol/m3, x2 = 0.5 | 0.0493 W/m/K
301.93 K, Amount density=6710 mol/m3, x2 = 0.26 | 0.0624 W/m/K
301.95 K, Amount density=7530 mol/m3, x2 = 0.5 | 0.0505 W/m/K
301.96 K, Amount density=6960 mol/m3, x2 = 0.5 | 0.0531 W/m/K
301.98 K, Amount density=435 mol/m3, x2 = 0.5 | 0.0203 W/m/K
302 K, Amount density=6830 mol/m3, x2 = 0.25 | 0.0658 W/m/K
302.01 K, Amount density=877 mol/m3, x2 = 0.26 | 0.0222 W/m/K
302.01 K, Amount density=2940 mol/m3, x2 = 0.5 | 0.0281 W/m/K
302.02 K, Amount density=446 mol/m3, x2 = 0.25 | 0.0214 W/m/K
302.02 K, Amount density=5680 mol/m3, x2 = 0.25 | 0.056 W/m/K
302.04 K, Amount density=2940 mol/m3, x2 = 0.25 | 0.0307 W/m/K
302.04 K, Amount density=6830 mol/m3, x2 = 0.25 | 0.0658 W/m/K
302.05 K, Amount density=8450 mol/m3, x2 = 0.25 | 0.0676 W/m/K
302.06 K, Amount density=7490 mol/m3, x2 = 0.25 | 0.0699 W/m/K
302.11 K, Amount density=3090 mol/m3, x2 = 0.26 | 0.0311 W/m/K
302.25 K, Amount density=6630 mol/m3, x2 = 0.74 | 0.0436 W/m/K
302.43 K, Amount density=5650 mol/m3, x2 = 0.5 | 0.0436 W/m/K
307.99 K, Amount density=2940 mol/m3, x2 = 0.5 | 0.0279 W/m/K
308 K, Amount density=7730 mol/m3, x2 = 0.5 | 0.0462 W/m/K
308.01 K, Amount density=6830 mol/m3, x2 = 0.25 | 0.0567 W/m/K
308.02 K, Amount density=6960 mol/m3, x2 = 0.5 | 0.0468 W/m/K
308.02 K, Amount density=7490 mol/m3, x2 = 0.25 | 0.0614 W/m/K
308.03 K, Amount density=7530 mol/m3, x2 = 0.5 | 0.0469 W/m/K
308.06 K, Amount density=5650 mol/m3, x2 = 0.5 | 0.041 W/m/K
308.06 K, Amount density=7450 mol/m3, x2 = 0.25 | 0.0646 W/m/K
308.06 K, Amount density=9120 mol/m3, x2 = 0.74 | 0.0485 W/m/K
308.07 K, Amount density=435 mol/m3, x2 = 0.5 | 0.0207 W/m/K
308.07 K, Amount density=446 mol/m3, x2 = 0.25 | 0.0219 W/m/K
308.09 K, Amount density=435 mol/m3, x2 = 0.5 | 0.0207 W/m/K
308.1 K, Amount density=877 mol/m3, x2 = 0.26 | 0.0228 W/m/K
308.12 K, Amount density=10780 mol/m3, x2 = 0.25 | 0.0659 W/m/K
308.15 K, Amount density=2940 mol/m3, x2 = 0.25 | 0.031 W/m/K
308.16 K, Amount density=3090 mol/m3, x2 = 0.26 | 0.0314 W/m/K
308.18 K, Amount density=6630 mol/m3, x2 = 0.74 | 0.0413 W/m/K
308.18 K, Amount density=6710 mol/m3, x2 = 0.26 | 0.054 W/m/K
308.23 K, Amount density=8450 mol/m3, x2 = 0.25 | 0.0617 W/m/K
308.7 K, Amount density=5680 mol/m3, x2 = 0.25 | 0.0516 W/m/K
318.04 K, Amount density=9120 mol/m3, x2 = 0.74 | 0.0354 W/m/K
318.11 K, Amount density=435 mol/m3, x2 = 0.5 | 0.0218 W/m/K
318.11 K, Amount density=6630 mol/m3, x2 = 0.74 | 0.0382 W/m/K
318.12 K, Amount density=7530 mol/m3, x2 = 0.5 | 0.0445 W/m/K
318.13 K, Amount density=5650 mol/m3, x2 = 0.5 | 0.0411 W/m/K
318.13 K, Amount density=6960 mol/m3, x2 = 0.5 | 0.0425 W/m/K
318.13 K, Amount density=7490 mol/m3, x2 = 0.25 | 0.0559 W/m/K
318.13 K, Amount density=7730 mol/m3, x2 = 0.5 | 0.0403 W/m/K
318.14 K, Amount density=2940 mol/m3, x2 = 0.5 | 0.0293 W/m/K
318.14 K, Amount density=6830 mol/m3, x2 = 0.25 | 0.0532 W/m/K
318.14 K, Amount density=10780 mol/m3, x2 = 0.25 | 0.065 W/m/K
318.15 K, Amount density=446 mol/m3, x2 = 0.25 | 0.0232 W/m/K
318.15 K, Amount density=5650 mol/m3, x2 = 0.5 | 0.0398 W/m/K
318.16 K, Amount density=2940 mol/m3, x2 = 0.25 | 0.0316 W/m/K
318.16 K, Amount density=8450 mol/m3, x2 = 0.25 | 0.049 W/m/K
318.17 K, Amount density=3090 mol/m3, x2 = 0.26 | 0.0318 W/m/K
318.19 K, Amount density=877 mol/m3, x2 = 0.26 | 0.0236 W/m/K
318.21 K, Amount density=6710 mol/m3, x2 = 0.26 | 0.0503 W/m/K
318.27 K, Amount density=5680 mol/m3, x2 = 0.25 | 0.0481 W/m/K
